Test results taken from patent US20100197625A1, “SYNTHETIC LIPOPHILIC INOSITOL GLYCANS FOR TREATMENT OF CANCER AND GLUCOSE-METABOLISM DISORDERS” (priority 2006, published 2010).
“Also recorded” adds a separate entry of the source.

How the values were obtained:
[1] = system: Panc-1 cells; test: Cell proliferation / cell death assay, Panc-1; assay type: cell-based, human
Experimental: (§1) Human pancreatic cancer cell lines (Panc-1, MiaPaca2, BXPC3, Aspc 1), human hepatoma cell line (HuH7), human gastric cancer cell lines (AGS, MKN45), human colon cancer cell line (CoCM-1), human mammary cancer cell line (MCF-7), human neuroblastoma (SH-SY5Y), human prostate cancer cells (PC3), and murine Ehrlich ascites cancer cells and mouse 3T3-L1 fibroblasts were obtained from American Type Culture Collection (Rockville, Md., USA). The cancer cells were cultured in RPMI 1640 containing 10% fetal calf serum. Cultures were maintained at 37° C. in a humidified atmosphere of 5% CO2.
(§2) Cell proliferation assays were performed with the CellTiter 96 AQueous One Solution Cell Proliferation Assay kit according to the manufacturer's instructions (Promega, Madison, Wis., USA). Briefly, 5×10^3 cells/well in medium were placed onto 96-well plates. IGs were added to cellular cultures at final concentrations of 0, 1, 10, and 100 μM. […] of CellTiter 96 AQueous One Solution Reagent, which contains a tetrazolium compound, 3-(4,5-dimethylthiazol-2-yl)-5-(3-carboxymethoxyphenyl)-2-(4-sulfophenyl)-2H-tetrazolium, an inner salt; MTS was added to the culture medium. After incubating the plate for 1 h in a CO2 incubator, absorbance at 490 nm was recorded with a 96-well plate reader.

[2] = system: Aspc1; test: Cell proliferation / cell death assay, Aspc1; assay type: cell-based, human; settings: Aspc1, 10-100 μM
Experimental: as §1
(§3) Cell proliferation assays were performed with the CellTiter 96 AQueous One Solution Cell Proliferation Assay kit according to the manufacturer's instructions (Promega, Madison, Wis., USA). Briefly, 5×10^3 cells/well in medium were placed onto 96-well plates. IGs were added to cellular cultures at final concentrations of 0, 1, 10, and 100 μM. Cultures were incubated for 3 days or 7 days and then added to 20 μL/well of CellTiter 96 AQueous One Solution Reagent, which contains a tetrazolium compound, 3-(4,5-dimethylthiazol-2-yl)-5-(3-carboxymethoxyphenyl)-2-(4-sulfophenyl)-2H-tetrazolium, an inner salt; MTS was added to the culture medium. After incubating the plate for 1 h in a CO2 incubator, absorbance at 490 nm was recorded with a 96-well plate reader.

[3] = system: human neuroblastoma (SH-SY5Y); test: Cell proliferation / cell death assay, SH-SY5Y; assay type: cell-based; settings: 10-100 μM
Experimental: as §1, §2

[4] = system: human prostate cancer cells (PC3); test: Cell proliferation / cell death assay, PC3; assay type: cell-based; settings: PC3, 10-100 μM
Experimental: as §1, §2

[5] = system: human normal cultured cells; test: Proliferation of human normal cultured cells; assay type: cell-based; settings: 1-100 μM, data not shown
Experimental: Human primary culture cells, dermal fibroblasts, epidermal keratinocytes and umbilical vein endothelial cells were purchased from Cell Applications (San Diego, Calif., USA) and cultured according to the manufacturer's instructions.
as §3

[6] = system: 3T3-L1 adipocytes; test: Glycogen synthesis in 3T3-L1 adipocytes; assay type: cell-based, mouse; settings: 10-1000 μM
Experimental: (§4) 3T3-L1 fibroblasts were maintained in Dulbecco's modified Eagle's medium (DMEM) with 25 mM glucose plus 10% fetal bovine serum (FBS). Following 2 days at confluence, differentiation was initiated by the addition of DMEM containing 10% FBS, 167 nM insulin, […] dexamethasone, and 0.5 mM isobutylmethylxanthine. Three days later, the medium was replaced with DMEM plus 10% FBS and 167 nM insulin. After 2 more days, the medium was switched to DMEM plus 10% fetal bovine serum. Adipocytes were used 6-14 days after completion of the differentiation protocol, when >90% of the cells expressed the adipocyte phenotype. Prior to experiments, cells were washed two times with DMEM medium containing 5 mM glucose, 0.2% bovine serum albumin, 25 mM Hepes (pH 7.4), 100 units/ml penicillin, 100 units/ml streptomycin and 0.29 mg/ml glutamine, and were incubated in the same medium for 2 h. Glycogen and lipid synthesis were measured in 24-well dishes. […] The lipids were then extracted overnight with 5 ml of Betafluor (National Diagnostics), and glucose incorporation into lipid was measured by scintillation counting. 400 μl of the cell suspension was added to 600 μl of 50% KOH, and glycogen was precipitated and radioactivity was counted by a liquid scintillation counter

[7] = system: 3T3-L1 adipocytes; test: Lipogenesis in 3T3-L1 adipocytes; assay type: cell-based, mouse; settings: 10-1000 μM
Experimental: as §4

[8] = system: STZ-diabetic mice; test: Intraperitoneal IG1 for 7 days, STZ-diabetic mice; assay type: in vivo
Experimental: Male C57BL/6 mice were housed individually and given free access to a standard diet (65% carbohydrate, 4% fat, and 24% protein) or a high-fat diet (Quick Fat; 60.2% carbohydrate, 15.3% fat, and 24.5% protein; Clea Japan, Tokyo, Japan), starting at 5 weeks of age, for 5 weeks. Db/db mice also were housed individually and given free access to a standard diet. C57BL/6 mice at 5 weeks of age, were received a single dose of 75 μg/g body weight streptozotoxin (STZ). 7 days after injections, the mice, whose fasting plasma glucose concentrations were over 400 mg/dl, were used as STZ-diabetic mice. […]
Frozen livers were homogenized, and triglycerides were extracted with CHCl3:CH3OH (2:1, vol:vol), dried and resuspended in 2-propanol (17). Triglyceride contents were measured using Lipidos liquid (TOYOBO, Osaka, Japan). […] Glycogen content was determined by the phenol-sulfuric acid spectrophotometric method at 490 nm (18) and expressed as micrograms of glycogen per milligram of liver.
Blood glucose was assayed with Glucose Ace (Sanwa Kagaku Kenkyusho, Nagoya, Japan). Serum insulin and leptin were determined with ELISA kits (Morinaga Institute of Biological Science, Yokohama, Japan). Serum adiponectin and tumor necrosis factor-α (TNF-α) concentrations were measured with an ELISA kit (Ohtsuka Pharmaceutical, Tokyo, Japan) and a TNF-α assay kit (Amersham Biosciences, Uppsala, Sweden), respectively. […]

CCCCCCCCCCCCCCCC(=O)O[C@@H]1C(O)C(O)[C@H](O)C(O[C@H]2OC(CO)[C@@H](O)[C@H](O)C2N)C1O (stereo in doubt) [IG1, 2-Amino-2-deoxy-α-D-glucopyranosyl-(1→6)-2-palmitoyl-D-myo-inositol]
cell death ([1]; Panc-1, 1 hour after addition, 10-100 μM): induced very rapid cell death; also recorded: induced rapid cell death | cell death ([1]; Panc-1, after 24 hours): induced rapid cell death | cell death ([1]; Panc-1, after 3 days (72 hours)): induced rapid cell death | rapid cancer cell death [2]: rapid cancer cell death was demonstrated | rapid cancer cell death [3]: rapid cancer cell death was demonstrated | rapid cancer cell death [4]: rapid cancer cell death was demonstrated | proliferation of human normal cultured cells [5]: did not affect the proliferation | glycogen synthesis [6]: stimulates | lipogenesis [7]: stimulates | hepatic and muscular glycogen synthesis ([8]; intraperitoneal 7 days, data not shown): increases hepatic and muscular glycogen synthesis | fasting plasma glucose concentrations ([8]; intraperitoneal, 0.3 mg per mice, for every 7 days): significantly reduced fasting plasma glucose concentrations
